Consider 7 compounds from EP4631931A1, “HDAC INHIBITOR AND USE THEREOF” (Wigen Biomedicine Technology (Shanghai) Co., Ltd., priority 2022, dated 2024).

The nature of data set [1]: Pharmacokinetic experiment in mice. The data set is classed as in vivo, CD-1 female mice. Conditions: female, CD-1, mouse, plasma; for Vd: read-out: Vdss. Here is the method: CD-1 female mice aged 7 to 10 weeks were intravenously administered and orally administered at doses of 1 mg/kg and 10 mg/kg, respectively. The mice were fasted for at least 12 h before the administration and given food 4 h after the administration, and they were given ad libitum access to water during the experiment.
On the day of the experiment, animals in the intravenous group were given the corresponding compound by single injection via the tail vein at an administration volume of 10 mL/kg; and animals in the oral group were given the corresponding compound by single intragastric injection at an administration volume of 10 mL/kg. The animals were weighed before administration, and the administration volume was calculated according to the body weight. The sample collection time points were 0.083 h, 0.167 h, 0.5 h, 1 h, 2 h, 4 h, 8 h, and 24 h. About 200 µL of whole blood was collected through the orbital venous plexus at each time point and used to prepare plasma for concentration determination by high-performance liquid chromatography-tandem mass spectrometry (LC-MS/MS). The plasma concentrations were processed using a non-compartmental model of Winnolin pharmacokinetic software, and the pharmacokinetic parameters were calculated using a linear-log trapezoidal method. Table 13. Results of in vivo pharmacokinetic evaluation of compounds of the present disclosure

In data set [2] the test system is 293T cell. The data set can be described thus: Inhibition of 293T cell proliferation (CTG, intracellular ATP). The data set is classed as cell-based. As to conditions: Homo sapiens, HEK-293T, 72 h, compared to DMSO group, read-out: Inhibitory activity against 293T cell proliferation (IC50). As for the experimental part:
(§1) Jurkat or 293T cells were seeded into a 96-well plate at 3000 cells/well. After overnight adherence culture, the serially diluted compound in DMSO was added. After 72 h, the intracellular ATP level was determined by CTG. The IC50 for the inhibition of cell proliferation by the compounds was calculated compared to the DMSO group. Table 8. Inhibitory activity of compounds of the present disclosure against Jurkat/293T cell proliferation (IC50, µM)

The subject of data set [3] is HeLa cells. The data set can be described thus: Intracellular acetyl lysine / H3K 27 acetyl lysine level by ELISA. The data set is classed as cell-based. Conditions: 24 h of treatment. As for the experimental part:
HeLa cells were seeded into a 96-well plate at 20000 cells/well. After overnight adherence culture, the serially diluted compound was added. After 24 h of treatment, intracellular levels of acetyl lysine and H3K 27 acetyl lysine were quantified by ELISA. Table 9. Effect of compound of the present disclosure on levels of acetyl lysine and H3K 27 acetyl lysine
A general note: In an ELISA, binding on a coated surface is turned into a signal by an enzyme label.

Data set [4] relates to Jurkat cell. The data set can be described thus: Inhibition of Jurkat cell proliferation (CTG, intracellular ATP). It is filed as cell-based. As to conditions: Homo sapiens, 72 h, compared to DMSO group, read-out: Inhibitory activity against Jurkat cell proliferation (IC50). As for the experimental part: as §1
Data set [5] in a line: Stability in liver microsomes. As to conditions: 1 µM compound, NADPH, 37 °C. It is filed as in vitro ADME. Here is the method: After the 1 µM compound was incubated with 0.5 mg/mL of human or mouse liver microsomes and an NADPH regeneration system at 37 °C for different times, respectively, LC-MS-MS was used to analyze the remaining amount of the compound and calculate T1/2. Table 12. Evaluation results of stability of compounds of the present disclosure in human and mouse liver microsomes
For orientation: Liver microsomes are vesicles of endoplasmic reticulum, rich in cytochrome P450 enzymes.

[6] abbreviates: Injection (1 mg/kg), intravenous.
Setting [7] is: Human liver microsomes 0.5 mg/mL.
Where [8] appears, read: Mouse liver microsomes 0.5 mg/mL.

A value given as a limit tells only on which side of the number the result lay.

`[2H]c1c(F)ccc(NC(=O)c2ccc(CNC(=O)/C=C/c3cccnc3)cc2)c1N` [Compound 2]: in data set [1] (setting [6]), the AUC(0-t) was 0.441 µg·h/mL, the clearance was 2.27 L/h/kg, the half-life was 2.3 h and the Vd is 1.61 L/kg. Also, in data set [1] (Oral administration (10 mg/kg)), the AUC(0-t) is 2.16 µg·h/mL, the Cmax was determined as 2.36 µg/mL, the Tmax came out at 0.08 h and the bioavailability was 46.5%. Also, the half-life in data set [1] (Oral administration (10 mg/kg)) is 1.85 h. Besides, the IC50 in data set [2] is above 10 µM. Further, in data set [3], the “Acetyl lysine Maximum (%)” value came out at 420%, the “Acetyl lysine Minimum effective concentration” value amounted to 16 nM, the “H3K 27 Acetyl lysine Maximum (%)” value came out at 360% and the “H3K 27 Acetyl lysine Minimum effective concentration” value worked out at 80 nM. The IC50 in data set [4] amounted to 1.68 µM.
`[2H]c1cc(F)cc(N)c1NC(=O)c1ccc(CNC(=O)/C=C/c2cccnc2)cc1` [Compound 3]: in data set [1] (setting [6]), the AUC(0-t) is 0.592 µg·h/mL, the clearance was 1.69 L/h/kg, the half-life was 2.78 h and the Vd is 0.93 L/kg. Besides, in data set [1] (Oral administration (10 mg/kg)), the area under the curve AUC(0-t) was determined as 1.77 µg·h/mL, the Cmax was 2.35 µg/mL, the Tmax turned out to be 0.08 h and the bioavailability worked out at 26.3%. In data set [1] (Oral administration (10 mg/kg)), the half-life was 2.21 h. The IC50 in data set [2] came out at 7.5 µM. Also, the IC50 in data set [4] was 1.86 µM.
In the case of `[2H]c1cc(CNC(=O)/C=C/c2cccnc2)ccc1C(=O)Nc1ccc(F)cc1N` [Compound 4], in data set [1] (setting [6]), the AUC(0-t) was determined as 0.602 µg·h/mL, the clearance was 1.66 L/h/kg, the half-life was 3.05 h and the Vd amounted to 1.32 L/kg. For the same compound, in data set [1] (Oral administration (10 mg/kg)), the AUC(0-t) stood at 1.71 µg·h/mL, the Cmax came to 1.74 µg/mL, the Tmax stood at 0.08 h and the bioavailability was 28.5%. This compound gave a half-life in data set [1] (Oral administration (10 mg/kg)) of 3.9 h. Moreover, the IC50 in data set [2] is 3.26 µM. In data set [5] (setting [7]), the CLint scaled at 1 µM is 1.17 L/h/kg, the “Clliver” value is 0.6018 L/h/kg and the half-life at 1 µM was 1.49 h. Also, in data set [5] (setting [8]), the CLint scaled at 1 µM was 14.6 L/h/kg, the “Clliver” value was determined as 3.944 L/h/kg and the half-life at 1 µM was found to be 0.373 h. Besides, the IC50 in data set [4] was determined as 1.7 µM.
For `[2H]/C(=C\C(=O)NCc1ccc(C(=O)Nc2ccc(F)cc2N)cc1)c1cccnc1` [Compound 8], in data set [1] (setting [6]), the AUC(0-t) is 0.903 µg·h/mL, the clearance was 2.21 L/h/kg, the half-life is 1.01 h and the Vd came to 1.21 L/kg. In data set [1] (Oral administration (10 mg/kg)), the AUC(0-t) was determined as 1.43 µg·h/mL, the concentration peaked (Cmax) at 0.824 µg/mL, the Tmax is 0.08 h and the bioavailability is 29.6%. The half-life in data set [1] (Oral administration (10 mg/kg)) is 1.87 h. In data set [2], the IC50 worked out at 4.01 µM. In addition, in data set [5] (setting [7]), the CLint scaled at 1 µM was found to be 1.1 L/h/kg, the “Clliver” value stood at 0.584 L/h/kg and the half-life at 1 µM is 1.58 h. Besides, in data set [5] (setting [8]), the CLint scaled at 1 µM was determined as 17.1 L/h/kg, the “Clliver” value is 4.105 L/h/kg and the half-life at 1 µM was determined as 0.319 h. Also, the IC50 in data set [4] turned out to be 1.58 µM.
Regarding `[2H]c1ncccc1/C=C/C(=O)NCc1ccc(C(=O)Nc2ccc(F)cc2N)cc1` [Compound 9], in data set [1] (setting [6]), the AUC(0-t) was found to be 1 µg·h/mL, the clearance came to 0.998 L/h/kg, the half-life is 1.48 h and the Vd was 0.44 L/kg. Further, in data set [1] (Oral administration (10 mg/kg)), the AUC(0-t) was found to be 1.05 µg·h/mL, the Cmax came out at 1.64 µg/mL, the Tmax is 0.17 h and the bioavailability is 10.5%. This compound also showed a half-life in data set [1] (Oral administration (10 mg/kg)) of 1.21 h. In addition, the IC50 in data set [2] worked out at 5.18 µM. In data set [5] (setting [7]), the CLint scaled at 1 µM is 0.275 L/h/kg, the “Clliver” value worked out at 0.225 L/h/kg and the half-life at 1 µM was 6.32 h. In data set [5] (setting [8]), the CLint scaled at 1 µM stood at 7.06 L/h/kg, the “Clliver” value stood at 3.059 L/h/kg and the half-life at 1 µM amounted to 0.773 h. Also, the IC50 in data set [4] turned out to be 1.08 µM.
With `[2H]c1cncc(/C=C/C(=O)NCc2ccc(C(=O)Nc3ccc(F)cc3N)cc2)c1` [Compound 11], in data set [1] (setting [6]), the AUC(0-t) worked out at 0.733 µg·h/mL, the clearance was found to be 1.36 L/h/kg, the half-life was 1.79 h and the Vd is 0.62 L/kg. In data set [1] (Oral administration (10 mg/kg)), the AUC(0-t) was 1.33 µg·h/mL, the highest level (Cmax) was 2.37 µg/mL, the Tmax amounted to 0.08 h and the bioavailability was 18.2%. Besides, in data set [1] (Oral administration (10 mg/kg)), the half-life was 1.19 h. The IC50 in data set [2] was found to be 5.16 µM. Moreover, in data set [5] (setting [7]), the CLint scaled at 1 µM came out at 1.42 L/h/kg, the “Clliver” value stood at 0.6624 L/h/kg and the half-life at 1 µM was determined as 1.22 h. In addition, in data set [5] (setting [8]), the CLint scaled at 1 µM stood at 13.9 L/h/kg, the “Clliver” value came to 3.886 L/h/kg and the half-life at 1 µM amounted to 0.394 h. For the same compound, in data set [3], the “Acetyl lysine Maximum (%)” value was found to be 450%, the “Acetyl lysine Minimum effective concentration” value is 80 nM, the “H3K 27 Acetyl lysine Maximum (%)” value turned out to be 460% and the “H3K 27 Acetyl lysine Minimum effective concentration” value was 80 nM. The IC50 in data set [4] came to 0.95 µM.
For the compound `[2H]c1ccc(/C=C/C(=O)NCc2ccc(C(=O)Nc3ccc(F)cc3N)cc2)cn1` [Compound 12], in data set [1] (setting [6]), the AUC(0-t) is 0.514 µg·h/mL, the clearance came to 1.95 L/h/kg, the half-life was 1.17 h and the Vd stood at 0.71 L/kg. In data set [1] (Oral administration (10 mg/kg)), the AUC(0-t) stood at 1.61 µg·h/mL, the concentration peaked (Cmax) at 2.08 µg/mL, the Tmax was determined as 0.17 h and the bioavailability was 30.5%. For the same compound, the half-life in data set [1] (Oral administration (10 mg/kg)) is 1.93 h. Further, in data set [2], the IC50 is 5.31 µM. In data set [5] (setting [7]), the CLint scaled at 1 µM is 0.172 L/h/kg, the “Clliver” value is 0.151 L/h/kg and the half-life at 1 µM was 10.1 h. Besides, in data set [5] (setting [8]), the CLint scaled at 1 µM was found to be 6.47 L/h/kg, the “Clliver” value is 2.943 L/h/kg and the half-life at 1 µM stood at 0.844 h. Besides, the IC50 in data set [4] was found to be 1.59 µM.

In general, AUC(0-t) refers to the area under the concentration-time curve up to a stated or last time point. A low value points to low exposure. As a reminder, the clearance is the rate of elimination divided by the concentration. Read a low clearance as inefficient removal. The term half-life denotes the time needed for the level to fall by half in the phase considered. A high value points to slow loss. For orientation: Cmax means the maximum level reached in the sampled fluid or tissue. Broadly, the Tmax is the time at which the peak concentration occurs. In general, bioavailability refers to dose-corrected exposure relative to a reference, in per cent. A low value points to poor availability. For orientation: CLint scaled means the capacity of the preparation to metabolise the compound, expressed as a volume cleared per time. A higher CLint scaled goes with rapid turnover.
